PMC4666608, “Metabolic Profiling of Chicken Embryos Exposed to Perfluorooctanoic Acid (PFOA) and Agonists to Peroxisome Proliferator-Activated Receptors” (PLoS ONE, 2015)
Several values for one entry are separate records, joined by “and”; a condition that tells them apart may be missing. Equal values may be shown once. Read-outs that look alike come from different tables or passages of the source.

Key:
[1] = system: chicken embryos; assay: Plasma lipids (total, LDL, HDL cholesterol, triacylglycerols), photometric; conditions: for HDL-C in plasma, mean ± SD / LDL-C in plasma, mean ± SD / LDL/HDL in plasma, mean ± SD / Total cholesterol in plasma, mean ± SD / Triacylglycerols in plasma, mean ± SD: E12; for LDL/HDL: plasma
Method: The experimental procedures in this study were approved by the Uppsala Ethical Committee for Research on Animals (Permit number C 211/12). Fertilized chicken eggs (Gallus gallus domesticus) were obtained from a local breeder (Ova Production AB, Vittinge, Sweden). The egg weights were 60 ± 4 g (mean and standard deviation). The eggs were incubated at 37.5°C and 60% relative humidity with automatic turning every six hours. The day the eggs were placed in the incubator was defined as embryonic day zero (E0). Chicken embryos were exposed to test substances by air sac injection in eggs incubated for seven days (E7). At this stage, the extraembryonic allantoic blood vessel network has grown to cover the inner shell membrane beneath the air sac and the injected substance will come in direct contact with the vascular network. The exposures were performed as follows: Unfertilized eggs and poorly developing embryos were recognized by candling and were sorted out. Eggs with embryos of normal size were collected and randomly distributed into the different treatment groups. On E7, the blunt end of each egg was wiped with alcohol and a small hole was drilled through the shell above the air sac. The dissolved test substance (20 μl) was deposited onto the inner shell membrane in the air sac and the hole was sealed with melted paraffin wax. Following injection, eggs were held horizontally and rotated for a few seconds to allow dispersal over the inner shell membrane in the air sac. Each egg was marked with a number specifying the treatment group and was placed at a random location in the incubator.
The doses were 150 μg/egg (approximately 2.5 mg/kg egg) for GW7647 and rosiglitazone and 50, 250 or 1000 μg/egg for PFOA (approximately 0.83, 4.2 and 18 mg/kg egg, respectively). Controls were injected with 20 μL vehicle only (DMSO). Due to the large number of embryos required, the experiment was divided into four replicate experiments (replicate A-D) performed the same way but on separate occasions. The number of exposed embryos was 10–15 for each treatment group and replicate.
A subset of randomly chosen embryos from each group (except the 1000 μg/egg group) was sampled for metabolomic analysis of allantoic fluid and blood plasma. Samples of allantoic fluid and blood were collected before decapitation and dissection of the embryo as described below. The egg shell was removed above the air cell without disrupting the inner shell membrane. Allantoic fluid was collected by gently inserting a needle through the inner shell membrane and into the allantoic sac and then aspiring the fluid with a syringe. The samples were placed in microtubes on ice during sampling and then stored at -70°C until processed for metabolomic analysis. Blood was collected from the allantoic artery, just proximal to its first branch. The artery was gently cleaned from membranes, lifted with a small spoon and then punctured with a needle. Blood flowing into the spoon was immediately collected with heparinized capillaries. Blood was stored in heparinized microtubes on ice during sampling and was then centrifuged at a speed of 1300g for 10 min at 4°C. Plasma was collected and stored at -70°C. The embryos were killed by decapitation and dissected immediately following blood sampling.
Total cholesterol, low-density lipoprotein (LDL) cholesterol, high-density lipoprotein (HDL) cholesterol, and triacylglycerols in plasma were analyzed with an Architect c8000 (Abbott Diagnostics, Abbott Park, IL, USA), using a photometric method, at the department of Clinical Chemistry and Pharmacology, Uppsala University Hospital, Sweden. The laboratory is accredited according to EN/ISO 15189 medical laboratory requirements. A total of 80 samples were analyzed; control: 7 females and 8 males; GW7647: 7 females and 8 males; rosiglitazone: 5 females and 12 males; 50 μg PFOA/egg: 11 females and 6 males; 250 μg PFOA/egg: 10 females and 6 males.

[2] = system: chicken embryos; assay: Embryo mortality after in ovo exposure (air sac injection E7, examined E12); format: in vivo, Gallus gallus domesticus
Method: (§1) Controls were injected with 20 μL vehicle only (DMSO).
Embryos were dissected and sampled on E12. The treatment group was concealed to the one carrying out embryo dissections and the order of dissection of the embryos was randomized. The embryos were examined for viability and gross morphology, e.g. appearance of the liver. The sex was determined by the presence of a pair of testes or an ovary.
Mortality rates were analyzed with Fisher’s exact test.

[3] = system: chicken embryos; conditions: injection before start of incubation; cited from earlier work
[4] = Determination of PFOA in liver (UPLC-MS/MS); format: in vivo, Gallus gallus domesticus; conditions: for concentration at 5 days: chicken (Gallus gallus domesticus) embryo, other: air sac injection into the egg, 1000 µg/egg; for concentration at 5 days / concentration at 5 d: liver; for concentration at 5 d: chicken, other: air sac injection in ovo
Method: as §1
The concentration of PFOA was analyzed in liver and blood plasma from control embryos and embryos exposed to PFOA (50, 250 and 1000 μg/egg). Five individual livers from each PFOA-treated group were analyzed. Very low PFOA concentrations were anticipated in the controls and therefore the amount of tissue was increased by pooling 2–3 livers, and five such pools were analyzed. Four plasma samples (50 μL) were analyzed from each group except the group exposed to 1000 μg PFOA/egg for which three samples were analyzed. Extraction blanks were included for each batch. The analyzed amount of liver homogenate was 100 mg for controls and 50 mg for PFOA-exposed embryos. Livers were homogenized using the bead mill Bullet Blender® Storm 24 (Next Advance, Inc. New York, USA) with stainless steel beads at speed 8 for 3 min. Plasma and liver samples were spiked with 50 ng of internal standard (^13C4-PFOA, Wellington, Guelph, Canada). Five milliliters of acetonitrile (Labscan, Gliwice, Poland) was added to the samples followed by vortex mixing, sonication (20 min), and centrifugation (10 000 g, 5 min). Extraction was performed twice for livers and once for plasma. One mL of supernatant from the extracts was transferred to a tube prepared with 50 mg ENVI-Carb™ 20/400 mesh (Supelco, Bellefonte, PA, USA) and 100 μL glacial acetic acid (Sigma-Aldrich). The carbon suspension was vortex mixed and then filtrated using a 0.2-μm GHP filter (Pall, East Hills, NY, USA). Filtrate (0.4 mL) was mixed with 2 ng of the recovery standard (^13C8-PFOA, Wellington Laboratories) and 0.6 mL 2 mM ammonium acetate was added. Analysis was performed using an Acquity UPLC coupled to a Xevo-TQS MS/MS (Waters Corporation, Milford, MA, USA) as described previously. The recovery standard ^13C8-PFOA was added before injection to assess the recoveries of the internal standard ^13C4-PFOA. The recoveries ranged between 75 and 94% (average 82%) for plasma and between 64 and 119% (average 84%) for liver.

[5] = group PFOA 50 (µg/egg), group mean
[6] = group PFOA 50 (µg/egg), individual embryos
[7] = group PFOA 250 (µg/egg), group mean
[8] = group PFOA 250 (µg/egg), individual embryos
[9] = in ovo injection E7, sampled E12, PFOA 50 μg/egg
[10] = in ovo injection E7, sampled E12, PFOA 250 μg/egg
[11] = in ovo injection E7, sampled E12, PFOA 1000 μg/egg

SMILES: O=C(O)C(F)(F)C(F)(F)C(F)(F)C(F)(F)C(F)(F)C(F)(F)C(F)(F)F [PFOA, perfluorooctanoic acid]
- HDL-C in plasma, mean ± SD ([1]; PFOA 50 μg/egg): 0.59 ± 0.06 mM
- LDL-C in plasma, mean ± SD ([1]; PFOA 50 μg/egg): 1.5 ± 0.2 mM
- LDL/HDL in plasma, mean ± SD ([1]; PFOA 50 μg/egg): 2.5 ± 0.3
- Total cholesterol in plasma, mean ± SD ([1]; PFOA 50 μg/egg): 5.2 ± 0.8 mM
- Triacylglycerols in plasma, mean ± SD ([1]; PFOA 50 μg/egg): 5.0 ± 0.8 mM
- HDL-C in plasma, mean ± SD ([1]; PFOA 250 μg/egg): 0.57 ± 0.05 mM
- LDL-C in plasma, mean ± SD ([1]; PFOA 250 μg/egg): 1.5 ± 0.3 mM
- LDL/HDL in plasma, mean ± SD ([1]; PFOA 250 μg/egg): 2.6 ± 0.5
- Total cholesterol in plasma, mean ± SD ([1]; PFOA 250 μg/egg): 5.0 ± 0.5 mM
- Triacylglycerols in plasma, mean ± SD ([1]; PFOA 250 μg/egg): 5.0 ± 0.7 mM
- HDL-Cholesterol in plasma [1, 5]: 0.59 mM
- LDL-Cholesterol in plasma [1, 5]: 1.5 mM
- Total Cholesterol in plasma [1, 5]: 5.2 mM
- Triacylglycerols in plasma [1, 5]: 5.0 mM
- LDL/HDL [1, 5]: 2.5
- HDL-Cholesterol in plasma [1, 6]: 0.63 mM and 0.53 mM and 0.55 mM and 0.69 mM and 0.59 mM and 0.56 mM and 0.65 mM and 0.49 mM and 0.62 mM and 0.64 mM and 0.48 mM and 0.58 mM
- LDL-Cholesterol in plasma [1, 6]: 1.90 mM and 1.20 mM and 1.50 mM and 1.80 mM and 1.40 mM and 1.30 mM and 1.60 mM and 1.00 mM
- Total Cholesterol in plasma [1, 6]: 6 mM and 4.6 mM and 5.1 mM and 5.7 mM and 5.9 mM and 5 mM and 5.4 mM and 6.1 mM and 3.8 mM and 5.3 mM and 4.3 mM and 4.2 mM and 4.1 mM
- Triacylglycerols in plasma [1, 6]: 6 mM and 4.8 mM and 5.1 mM and 5.7 mM and 5 mM and 4.9 mM and 5.4 mM and 4.5 mM and 6.2 mM and 4.2 mM and 3.6 mM and 3.5 mM
- LDL/HDL [1, 6]: 3.0 and 2.3 and 2.7 and 2.9 and 2.2 and 2.4 and 2.1 and 2.0 and 2.6 and 3.1 and 2.5
- HDL-Cholesterol in plasma [1, 7]: 0.57 mM
- LDL-Cholesterol in plasma [1, 7]: 1.5 mM
- Total Cholesterol in plasma [1, 7]: 5.0 mM
- Triacylglycerols in plasma [1, 7]: 5.0 mM
- LDL/HDL [1, 7]: 2.6
- HDL-Cholesterol in plasma [1, 8]: 0.52 mM and 0.54 mM and 0.49 mM and 0.56 mM and 0.55 mM and 0.57 mM and 0.51 mM and 0.64 mM and 0.58 mM and 0.61 mM and 0.63 mM and 0.53 mM and 0.6 mM
- LDL-Cholesterol in plasma [1, 8]: 2.20 mM and 1.40 mM and 1.50 mM and 1.10 mM and 1.20 mM and 1.80 mM and 1.30 mM and 1.70 mM and 1.60 mM
- Total Cholesterol in plasma [1, 8]: 5.2 mM and 4 mM and 4.9 mM and 5.7 mM and 5 mM and 5.4 mM and 4.2 mM and 4.4 mM and 4.7 mM and 5.1 mM
- Triacylglycerols in plasma [1, 8]: 5.1 mM and 5.7 mM and 3.8 mM and 4.5 mM and 6 mM and 4.7 mM and 5.4 mM and 4.8 mM and 4.2 mM and 4.9 mM
- LDL/HDL [1, 8]: 4.2 and 2.6 and 2.9 and 2.7 and 2.0 and 2.4 and 2.8 and 2.1 and 1.7 and 2.2
- Mortality rate ([2]; PFOA 1000 μg/egg, replicate A): 40%
- Mortality rate ([2]; PFOA 1000 μg/egg, replicate B): 60%
- Mortality rate ([2]; PFOA 1000 μg/egg, replicate C): 33%
- Mortality rate ([2]; PFOA 1000 μg/egg, replicate D): 7%
- Dose with increased mortality ([2]; exposed E7 to E12): 18 mg/kg egg
- Dose with no effect on survival (no effect level) ([2]; exposed E7 to E12): 4.2 mg/kg egg
- Mortality ([2]; follow-up study, PFOA 1000 μg/egg, N = 25, control 12%): 40%
- Mortality rate [2, 9]: 5%
- Mortality rate, Ratio [2, 9]: 2/40
- Mortality rate [2, 10]: 2.5%
- Mortality rate, Ratio [2, 10]: 1/40
- Mortality rate [2, 11]: 35% and 35 ^*** %
- Mortality rate, Ratio [2, 11]: 19/54
- Dose at which increased mortality was reported [3]: 5 mg/kg egg
- Doses with lack of effect on hatching success or mortality [3]: up to 10 mg/kg egg
- Lowest observed effect level, increased embryo mortality [3]: 2 mg/kg egg
- Concentration in liver ([4]; PFOA 50 µg/egg, chicken embryo liver, individual embryos): 1067 ng/g and 1343 ng/g and 1269 ng/g and 1059 ng/g
- Concentration in liver ([4]; PFOA 250 µg/egg, chicken embryo liver, individual embryos): 3843 ng/g and 2549 ng/g and 3327 ng/g and 3144 ng/g
- Concentration in liver ([4]; PFOA 1000 µg/egg, chicken embryo liver, individual embryos): 11372 ng/g and 14202 ng/g and 9187 ng/g and 10517 ng/g
- concentration at 5 days ([4]; PFOA 1000 µg/egg, chicken embryo liver, group mean (n=5), read-out: Concentration in liver, Mean): 10800 ng/g
- concentration at 5 days ([4]; PFOA 1000 µg/egg, chicken embryo liver, individual embryos, read-out: Concentration in liver): 8570 ng/g
- concentration at 5 d ([4]; 50 μg/egg, E12, 50 μg PFOA/egg on E7, read-out: Mean PFOA concentration in liver): 1100 ng/g
- concentration at 5 d ([4]; 50 µg/egg, PFOA 50 µg/egg, chicken embryo liver, group mean (n=5), read-out: Concentration in liver, Mean): 1180 ng/g
- concentration at 5 d ([4]; 50 µg/egg, PFOA 50 µg/egg, chicken embryo liver, individual embryos, read-out: Concentration in liver): 1170 ng/g
- concentration at 5 d ([4]; 250 μg/egg, E12, 250 μg PFOA/egg on E7, read-out: Mean PFOA concentration in liver): 3600 ng/g
- concentration at 5 d ([4]; 250 µg/egg, PFOA 250 µg/egg, chicken embryo liver, group mean (n=5), read-out: Concentration in liver, Mean): 3580 ng/g
- concentration at 5 d ([4]; 250 µg/egg, PFOA 250 µg/egg, chicken embryo liver, individual embryos, read-out: Concentration in liver): 5060 ng/g
- concentration at 5 d ([4]; 1000 μg/egg, E12, 1000 μg PFOA/egg on E7, read-out: Mean PFOA concentration in liver): 11000 ng/g
